Measured values reported in PubChem BioAssay (NCI).
“And” between values parts separate entries of the source, which are not always exact repeats. Identical values can stand only once.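 Test compounds were applied to cells in 96-well plates for 48 hours at 5 doses. Abbreviation: GI50, concentration required for 50% inhibition of growth. TGI: concentration producing complete growth inhibition.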

Legend:
Experiment in all cases: NCI-60 cell line screen, 48 h
MOLT-4 leukemia = tested on: MOLT-4 leukemia
EKVX NSCLC = tested on: EKVX NSCLC
OVCAR-3 ovarian = tested on: OVCAR-3 ovarian
UO-31 renal = tested on: UO-31 renal
HOP-62 NSCLC = tested on: HOP-62 NSCLC
HOP-92 NSCLC = tested on: HOP-92 NSCLC
MDA-MB-231 breast = tested on: MDA-MB-231 breast
U251 CNS = tested on: U251 CNS
HOP-18 NSCLC = tested on: HOP-18 NSCLC
LXFL 529 NSCLC = tested on: LXFL 529 NSCLC

Compound	GI50 (MOLT-4 leukemia) [µM]	TGI (MOLT-4 leukemia)	GI50 (EKVX NSCLC) [µM]	TGI (EKVX NSCLC)	GI50 (OVCAR-3 ovarian) [µM]	TGI (OVCAR-3 ovarian) [µM]	GI50 (UO-31 renal) [µM]	TGI (UO-31 renal)	GI50 (HOP-62 NSCLC) [µM]	TGI (HOP-62 NSCLC)	GI50 (HOP-92 NSCLC) [µM]	TGI (HOP-92 NSCLC)	GI50 (MDA-MB-231 breast) [µM]	TGI (MDA-MB-231 breast)	GI50 (U251 CNS) [µM]	TGI (U251 CNS)	TGI (HOP-18 NSCLC) [µM]	TGI (LXFL 529 NSCLC) [µM]
CC1=C(C)C(=O)c2c(c(C(=O)c3ccccc3)c3nc4ccccc4n3c2C)C1=O	> 100	> 100 µM	68.2	> 100 µM	> 100	> 100	> 100	> 100 µM	23.4	57.3 µM	26	87.3 µM	17.7	46 µM	27.5	79.4 µM		
COc1ccc2[nH]cc(CCNC(C)=O)c2c1		> 100 µM		> 100 µM		> 100		> 100 µM		> 100 µM		> 100 µM				> 100 µM	> 100	> 100
CC1=CC=NN2C(=O)[C@H](C)C2C1 (stereo not given in full)		> 100 µM		> 100 µM		> 100		> 100 µM		> 100 µM		> 100 µM				> 100 µM	> 100	> 100
CSC(=S)c1ccc(C(=S)SC)cc1		> 100 µM		> 100 µM		> 100		> 100 µM		> 100 µM		> 100 µM				> 100 µM	> 100	> 100
C/C(=N\N=C(N)N)C(CN(CC(C)C)CC(C)C)C(=O)Nc1ccc(C)cc1C (stereo not given)		> 100 µM		> 100 µM		> 100		> 100 µM		> 100 µM		> 100 µM				> 100 µM	> 100	> 100
C/C(CN1C(=O)c2ccccc2C1=O)=N\NS(=O)(=O)c1cccc([N+](=O)[O-])c1		> 100 µM		> 100 µM		> 100		> 100 µM		> 100 µM						> 100 µM	> 100	> 100
CC(C)(C)NNC(=O)/C(=C/c1ccc(Oc2ccc(Cl)c(Cl)c2)cc1)NC(=O)c1ccccc1		> 100 µM		> 100 µM		> 100		> 100 µM		> 100 µM		> 100 µM				> 100 µM	> 100	> 100
Cc1ccc(NC(c2ccccc2)c2ccc3cccnc3c2O)cc1 (stereo not given)		17.3 µM		15 µM		7.58		16 µM		19.9 µM		16 µM		13.5 µM		10.9 µM		
CC(C)(C)[OH+][O-].[O-]c1ccc(Cl)cc1C=Nc1ccc(Cl)cc1[O-].[O]=[V]	17.5	> 100 µM	2.84	18.1 µM	13.5	40.5	13.2	70.6 µM	23.7	74.1 µM	28.7	> 100 µM	29.9	> 100 µM	20.2	69.2 µM		
O=C1C2C(C(=O)N1O)N(Cc1ccccc1)C(=O)N2Cc1ccccc1 (stereo not given)		> 100 µM		> 100 µM		> 100		> 100 µM		> 100 µM		> 100 µM				> 100 µM		> 100
Cc1ccc(S(=O)(=O)N/N=C(\CCN2CCCC2)CC(c2ccccc2)c2c(O)c3ccccc3oc2=O)cc1 (stereo not given)				> 100 µM		> 100		> 100 µM		> 100 µM		> 100 µM				> 100 µM	> 100	> 100
COc1ccc(C(=O)Cn2c(C(=O)c3ccc(OC)cc3)nc3ccccc32)cc1	0.861	> 100 µM	18.9	> 100 µM	2.03	> 100	6.27	> 100 µM	5.46	> 100 µM	> 100	> 100 µM	9.23	> 100 µM	3.16	> 100 µM		
COc1ccc(C(=O)/C=C/c2ccc(O)c(O)c2F)c(OC)c1	0.259	75 µM and 11.6 µM	10.9	30.3 µM and 28.9 µM	2.63		7.04	16.3 µM and 38.4 µM	19.8	37.1 µM and > 100 µM	36	75 µM and > 100 µM		38.1 µM and 42.1 µM	4.12	23.1 µM and 17.9 µM		
Cc1ccc(NC(=O)c2[nH]c(=S)nc(N)c2-c2ccccc2C)cc1C		> 100 µM		> 100 µM		> 100		> 100 µM				> 100 µM				> 100 µM	> 100	> 100
CC/C=C\C[C@H](O)C/C=C1/C(=O)C=C[C@@H]1C/C=C\CCCC(=O)NC(C)C	2.72	11 µM	4	15 µM	2.63	8.41	1.94	4.11 µM	2.65	6.59 µM	2.75	6.08 µM	4.72	16.7 µM	2.61	7.08 µM		
CC(C)C(C(=O)O)N(CC1(O)OCC(O)C(O)C1O)N=O (stereo not given)		> 100 µM		> 100 µM		> 100		> 100 µM		> 100 µM		> 100 µM				> 100 µM		> 100
N#CC1=C(N)Oc2cc3c(cc2C1c1cccs1)OCO3 (stereo not given)	0.504	> 100 µM	1.21	> 100 µM	0.236	0.644	1.24	> 100 µM	0.484	> 100 µM	0.66	26.2 µM	5.41	> 100 µM	0.397	31.9 µM		
COc1ccc(CN2C(=O)/C(=C\c3cc(OC)c(OC)c(OC)c3)c3cc(OC)ccc32)cc1	4.07	> 100 µM	3.83	> 65.6 µM	2.14	4.7	2.67	10.7 µM	2.37	4.89 µM	1.21	16.8 µM	2.89	> 100 µM	1.38	2.67 µM		
COC(=O)c1c[nH]cc1CCc1c[nH]cc1C(=O)OC		> 100 µM		> 100 µM		> 100				> 100 µM		> 100 µM				> 100 µM		> 100
